The record followed here is patent US11485762B2, “Compositions and methods for inhibition of L-plastin activity in osteoclasts to reduce bone loss” (University of Maryland, Baltimore, priority 2017, dated 2022).

Numbering of substitutions follows the chain as printed.

Format in all cases: cell-based, mouse
In assay [1] the test system is osteoclasts. Kind of assay: Formation of nascent sealing zones (NSZs) in osteoclasts plated on dentine slices (actin staining). Conditions: for formation of NSZs, time course: 3, 6 and 10 hours, LPL and integrin αv immunostaining; for formation of NSZs: sNT-LPL peptides, dentine; for number of NSZs: dentine slices 2-3 hours, versus basal level. As to the method:
The vector pTAT-HA has an N-terminal 6-histidine leader (Nagahara et al., 1998, Nature Medicine, 4:1449-1452). […] For transduction with TAT-fused peptides (100-150 nM), osteoclasts were first kept in serum-free α-MEM for two hours. Afterward, TAT proteins of interest, bone particles, and TNF-α were added to cells in serum-free α-MEM Lysates were made from these cells for immunoprecipitation and immunoblotting analyses. Osteoclasts plated on dentine slices in the presence of TAT-proteins of interest and TNF-α for 3-6 hours or 12-14 hours were used for immunostaining or actin staining analyses. Osteoclast cultures treated only with TNF-α were used as controls.
Osteoclast precursors (10^5 cells/coverslips) were cultured on glass cover slips or dentine slices. Fluorescent labeling was done in osteoclasts transduced or untransduced with TAT-proteins. HA or TAT antibody was used to identify the transduced peptides of interest; rhodamine phalloidin was used to determine actin organization (Chellaiah et al., 2000, J. Cell Biol., 148: 665-678; Chellaiah et al., 2000, J. Biol. Chem., 275: 11993-12002). Immunostained and actin stained osteoclasts were photographed with a Bio-Rad confocal laser-scanning microscope. Images were stored in TIF image format and processed by Adobe Photoshop (Adobe Systems Inc., Mountain View. Calif.).
After cells were kept in the serum-free α-MEM medium for two hours, LPL peptides of interest were added to a final concentration of 100-150 nM to cells in serum-free media (Chellaiah et al, 2000, J. Biol. Chem., 275: 11993-12002). Osteoclasts transduced with peptides of interest and added with bone particles in the presence of TNF-α for 3-4 hours or 12-14 hours were used for lysate preparations. Cells plated on coverslips and treated with peptides were used for actin staining to detect podosomes. […] These cells were used for Actin staining with rhodamine-phalloidin or immunostaining analyses (Chellaiah et al., 2000, J. Biol. Chem., 275: 11993-12002; Chellaiah et al., 2000, J. Cell. Biol., 148: 665-678; Chellaiah et al., 2003, J Biol Chem 278: 29086-29097).
Osteoclasts were fixed with 3% paraformaldehyde for 20 minutes and permeabilized with 0.1% Triton X-100 in PBS for 5 minutes. Subsequently, osteoclasts were stained with a primary (HA or integrin αv) and secondary antibody as described (Chellaiah et al., 2003, J Biol Chem 278: 29086-29097). Actin staining was done with rhodamine-phalloidin as described (Chellaiah et al., 2000, J. Biol. Chem., 275: 11993-12002; Chellaiah et al., 2000, J. Cell Biol., 148: 665-678). Cells were washed and mounted on a slide in a mounting solution (Vector Laboratories) and sealed with nail polish. Immunostained osteoclasts were photographed with a Bio-Rad and Nikon confocal microscope. Images were stored in TIF image format and processed by Adobe Photoshop (Adobe Systems Inc., Mountain View, Calif.).

Assay [2] deals with osteoclasts. The assay is described as follows: F-actin content by rhodamine phalloidin binding. The settings on record: for F-actin content: TAT-fused LPL peptides, dentine, TNF-α, versus basal level. As to the method: For the measurement of F-actin, osteoclasts transduced with TAT-LPL peptides of interest for 15 to 30 minutes were re-plated on dentine slices for 3 to 4 hours or 10-12 hours, respectively, in the presence of indicated TAT-fused peptides of interest and TNF-α. For each treatment four to six wells in 24 well, culture dishes were used. Cells were fixed and rhodamine phalloidin binding to F-actin was done as described (Chellaiah et al., 2000, J. Cell Biol., 148: 665-678; Chellaiah et al., 2000, J. Biol. Chem., 275: 11993-12002: Chellaiah et at, 2007, J. Biol. Chem., 282: 10104-10116),
Osteoclasts were transduced with LPL and control peptides. For each treatment four to six wells in 24 well culture dishes were used. Cells were fixed and rhodamine phalloidin binding to F-actin was done as described (Chellaiah et al., 1998, J. Biol. Chem., 273: 11908-11916; Chellaiah et al., 1996, Mol. Biol. Cell, 7: 743-753).

The test system of assay [3] is osteoclasts. Kind of assay: Resorption pit formation assay on dentine slices. Conditions: for resorption of dentine matrix: sNT-LPL peptides, 12-16 hours. The procedure:
Osteoclasts transduced with TAT-LPL peptides of interest for 30 minutes, were re-plated on dentine slices for 10-12 hours in the presence of TAT-fused peptides of interest and TNF-α. Some cultures were treated with a neutralizing antibody to TNFR-1. Resorption assay was performed as described previously (Chellaiah et al., 2000, J. Cell Biol., 148: 665-678; Chellaiah at al., 2000, J. Biol. Chem., 275: 11993-12002). Resorbed area were also scanned in confocal microscopy. Images were stored in TIF format and processed by Adobe Photoshop (Adobe Systems Inc.) (Chellaiah et al., 2000, J. Cell Biol, 148: 665-678). The resorbed pit areas were quantified and data were compiled from four slices per treatment and per experiment. The resorbed pit areas (20-25 pits/slice) were quantified and data were compiled from four slices per treatment. […] The area of the pit was determined from the free-hand traced perimeter using the LSM software (Chellaiah et al., 2000, J. Cell Biol., 148: 665-678). As per Cosmo Bio recommendations, the results of one experiment was compiled for the presentation.
Resorption was evaluated using dentine slices as described previously (Chellaiah et al., 2000, J. Biol. Chem., 275: 11993-12002). After transduction for 30 minutes, osteoclasts were re-plated on dentine slices for 12-16 hours to detect resorption lacuna in the presence of respective LPL peptide and TNF-α. Each treatment was done in quadruplicates Subsequently, dentine slices were stained with Mayer's acid hematoxylin (Sigma) for 6 minutes followed by washing several times with water. Excess stain in the resorbed area and stained cell debris were removed with a cotton swab. The pits were imaged under an X40 objective in a Zeiss inverted phase contrast microscope fitted with a CCD camera (Chellaiah et al., 2003, J Biol Chem 278: 29086-29097; Chellaiah et al., 2003, Mol Biol Cell, 14: 173-189). Images were stored in TIF format and processed by Adobe Photoshop (Adobe Systems Inc.).

Take “MARGSVSDEE [Peptide P1, TAT-fused small molecular weight (10aa) amino-terminal LPL peptide, unsubstituted (S5S7)]”: in assay [1], the “formation of NSZs, time course” value is recorded as “attenuates” and the “formation of NSZs” value is given as “considerable decrease”. For the same molecule, in assay [2] (sNT-LPL peptides, compared with P2, P5, and P6), the F-actin level result was “decrease was significant”. For the same molecule, the “resorption of dentine matrix” value in assay [3] is recorded as “Reduced resorption of dentine”.

As to “MARGAVADEE [Peptide P2, TAT-fused sNT-LPL peptide, Ser-5 and Ser-7 substituted to Alanine (A5A7)]”, in assay [1], the “formation of NSZs” value was “no inhibitory effect”. Moreover, the “resorption of dentine matrix” value in assay [3] was “no inhibitory effect”.

Turning to “SRSGMVEEAD [Peptide P5, TAT-fused scrambled sNT-LPL peptide, control, reference compound]”, in assay [1], the “formation of NSZs, time course” value is recorded as “time-dependent organization” and the “formation of NSZs” value was “no inhibitory effect”. Further, in assay [3], the “resorption of dentine matrix” value was “no inhibitory effect”.

B1: FL-LPL: HA-TAT fused full-length L-plastin protein (70-75 kDa), purified from bacterial expression vector pTAT-HA (protein, UniProt P13796 1-627, looked up)
chain: MARGSVSDEEMMELREAFAKVDTDGNGYISFNELNDLFKAACLPLPGYRVREITENLMATGDLDQDGRISFDEFIKIFHGLKSTDVAKTFRKAINKKEGICAIGGTSEQSSVGTQHSYSEEEKYAFVNWINKALENDPDCRHVIPMNPNTNDLFNAVGDGIVLCKMINLSVPDTIDERTINKKKLTPFTIQENLNLALNSASAIGCHVVNIGAEDLKEGKPYLVLGLLWQVIKIGLFADIELSRNEALIALLREGESLEDLMKLSPEELLLRWANYHLENAGCNKIGNFSTDIKDSKAYYHLLEQVAPKGDEEGVPAVVIDMSGLREKDDIQRAECMLQQAERLGCRQFVTATDVVRGNPKLNLAFIANLFNRYPALHKPENQDIDWGALEGETREERTFRNWMNSLGVNPRVNHLYSDLSDALVIFQLYEKIKVPVDWNRVNKPPYPKLGGNMKKLENCNYAVELGKNQAKFSLVGIGGQDLNEGNRTLTLALIWQLMRRYTLNILEEIGGGQKVNDDIIVNWVNETLREAKKSSSISSFKDPKISTSLPVLDLIDAIQPGSINYDLLKTENLNDDEKLNNAKYAISMARKIGARVYALPEDLVEVNPKMVMTVFACLMGKGMKRV
modifications: full-length HA-TAT tag
notes: HA-TAT fused full-length L-plastin protein (70-75 kDa), purified from bacterial expression vector pTAT-HA
In the case of B1, in assay [1] (TNF-α), the “number of NSZs” value is on record as “substantial increase above the basal level”. Further, the F-actin content entry in assay [2] is “substantial increase above the basal level”. For the same molecule, the “resorption (resorption pits)” value in assay [3] (dentine 10-12 hours, TNF-α) was “increase in the number and size (area) of resorption pits”.

B2: mutated FL-LPL: TAT-fused full-length L-plastin with Ser-5 and Ser-7 mutated to Ala-5 and Ala-7 (protein, UniProt P13796 1-627, looked up, variant S5A S7A)
chain: B1 chain with S5A, S7A
modifications: full-length HA-TAT tag
For the molecule B2, the “number of NSZs” value in assay [1] (TNF-α) is listed as “more or less equal”. Moreover, the “formation of NSZs, lower magnification (FIG. 7)” value in assay [1] (dentine slices 3-4 hours, TNF-α) is recorded as “did not affect”. Further, the F-actin content entry in assay [2] was “more or less equal”.
